Assay results reported in ChEMBL document CHEMBL4507318, “Data for DCP probe BAY-985” (2021).
Calls of active or inactive are those of the source. The rule behind the calls is not given here.

Tests used:
[1] = biological target: Serine/threonine-protein kinase 26 (Homo sapiens) (UniProt Q9P289)
[2] = biological target: 5-hydroxytryptamine receptor 2A (Homo sapiens) (UniProt P28223); details: Compound concentration 10.0 uM
[3] = biological target: Dual specificity mitogen-activated protein kinase kinase 3 (Homo sapiens) (UniProt P46734)
[4] = biological target: Dual specificity protein kinase CLK3 (Homo sapiens) (UniProt P49761)
[5] = biological target: Histamine H4 receptor (Homo sapiens) (UniProt Q9H3N8); details: Compound concentration 10.0 uM
[6] = biological target: Serine/threonine-protein kinase BRSK1 (Homo sapiens) (UniProt Q8TDC3)
[7] = biological target: Activin receptor type-1-like (Homo sapiens) (UniProt P37023)
[8] = biological target: Ribosomal protein S6 kinase alpha-1 (Homo sapiens) (UniProt Q15418)
[9] = biological target: Ephrin type-B receptor 3 (Homo sapiens) (UniProt P54753)
[10] = biological target: Vascular endothelial growth factor receptor 2 (Homo sapiens) (UniProt P35968)
[11] = biological target: Transient receptor potential cation channel subfamily M member 6 (Homo sapiens) (UniProt Q9BX84)
[12] = biological target: MAP/microtubule affinity-regulating kinase 3 (Homo sapiens) (UniProt P27448)
[13] = biological target: Alpha-2C adrenergic receptor (Homo sapiens) (UniProt P18825); details: Compound concentration 10.0 uM
[14] = biological target: Death-associated protein kinase 2 (Homo sapiens) (UniProt Q9UIK4)
[15] = biological target: Serine/threonine-protein kinase MRCK gamma (Homo sapiens) (UniProt Q6DT37)
[16] = biological target: Serine/threonine-protein kinase LATS2 (Homo sapiens) (UniProt Q9NRM7)
[17] = biological target: Receptor-type tyrosine-protein kinase FLT3 (Homo sapiens, UniProt P36888); test: NanoBRET with FTL3
[18] = biological target: 5-hydroxytryptamine receptor 2B (Homo sapiens, UniProt P41595); test: GPCRScan assay: inhibition of 5-HT2B; set-up: radioligand conc. used [nm] 1.0 – 2.0, parental cells stable HEK
[19] = biological target: Sodium-dependent dopamine transporter (Homo sapiens) (UniProt Q01959); details: Compound concentration 10.0 uM
[20] = biological target: T1, Serine/threonine-protein kinase TBK1 (Homo sapiens, UniProt Q9UHD2); test: cell-based
[21] = biological target: Dual specificity mitogen-activated protein kinase kinase 5 (Homo sapiens, UniProt Q13163); test: NanoBRET with MAP2K5
[22] = biological target: T1, Serine/threonine-protein kinase TBK1; test: Biochemical assay (high ATP) with TBK1
[23] = biological target: Mitogen-activated protein kinase kinase kinase 19 (Homo sapiens, UniProt Q56UN5); test: NanoBRET with MAP3K19
[24] = biological target: GABA-A receptor; anion channel (Rattus norvegicus) (UniProt O09028+P15431+P18506+P18508+P19969+P20236+P23574+P23576+P28471+P28473+P30191+P62813+P63079+P63138+Q91ZM7+Q9ES14); details: Compound concentration 10.0 uM
[25] = biological target: Inhibitor of nuclear factor kappa-B kinase subunit epsilon (Homo sapiens, UniProt Q14164); test: cell-based
[26] = biological target: Serine/threonine-protein kinase 17A (Homo sapiens, UniProt Q9UEE5); test: NanoBRET with STK17A
[27] = Compound concentration 1000.0 nM
[28] = Compound concentration 100.0 nM

Sequence of Serine/threonine-protein kinase MRCK gamma (Homo sapiens) (Q6DT37 whole entry): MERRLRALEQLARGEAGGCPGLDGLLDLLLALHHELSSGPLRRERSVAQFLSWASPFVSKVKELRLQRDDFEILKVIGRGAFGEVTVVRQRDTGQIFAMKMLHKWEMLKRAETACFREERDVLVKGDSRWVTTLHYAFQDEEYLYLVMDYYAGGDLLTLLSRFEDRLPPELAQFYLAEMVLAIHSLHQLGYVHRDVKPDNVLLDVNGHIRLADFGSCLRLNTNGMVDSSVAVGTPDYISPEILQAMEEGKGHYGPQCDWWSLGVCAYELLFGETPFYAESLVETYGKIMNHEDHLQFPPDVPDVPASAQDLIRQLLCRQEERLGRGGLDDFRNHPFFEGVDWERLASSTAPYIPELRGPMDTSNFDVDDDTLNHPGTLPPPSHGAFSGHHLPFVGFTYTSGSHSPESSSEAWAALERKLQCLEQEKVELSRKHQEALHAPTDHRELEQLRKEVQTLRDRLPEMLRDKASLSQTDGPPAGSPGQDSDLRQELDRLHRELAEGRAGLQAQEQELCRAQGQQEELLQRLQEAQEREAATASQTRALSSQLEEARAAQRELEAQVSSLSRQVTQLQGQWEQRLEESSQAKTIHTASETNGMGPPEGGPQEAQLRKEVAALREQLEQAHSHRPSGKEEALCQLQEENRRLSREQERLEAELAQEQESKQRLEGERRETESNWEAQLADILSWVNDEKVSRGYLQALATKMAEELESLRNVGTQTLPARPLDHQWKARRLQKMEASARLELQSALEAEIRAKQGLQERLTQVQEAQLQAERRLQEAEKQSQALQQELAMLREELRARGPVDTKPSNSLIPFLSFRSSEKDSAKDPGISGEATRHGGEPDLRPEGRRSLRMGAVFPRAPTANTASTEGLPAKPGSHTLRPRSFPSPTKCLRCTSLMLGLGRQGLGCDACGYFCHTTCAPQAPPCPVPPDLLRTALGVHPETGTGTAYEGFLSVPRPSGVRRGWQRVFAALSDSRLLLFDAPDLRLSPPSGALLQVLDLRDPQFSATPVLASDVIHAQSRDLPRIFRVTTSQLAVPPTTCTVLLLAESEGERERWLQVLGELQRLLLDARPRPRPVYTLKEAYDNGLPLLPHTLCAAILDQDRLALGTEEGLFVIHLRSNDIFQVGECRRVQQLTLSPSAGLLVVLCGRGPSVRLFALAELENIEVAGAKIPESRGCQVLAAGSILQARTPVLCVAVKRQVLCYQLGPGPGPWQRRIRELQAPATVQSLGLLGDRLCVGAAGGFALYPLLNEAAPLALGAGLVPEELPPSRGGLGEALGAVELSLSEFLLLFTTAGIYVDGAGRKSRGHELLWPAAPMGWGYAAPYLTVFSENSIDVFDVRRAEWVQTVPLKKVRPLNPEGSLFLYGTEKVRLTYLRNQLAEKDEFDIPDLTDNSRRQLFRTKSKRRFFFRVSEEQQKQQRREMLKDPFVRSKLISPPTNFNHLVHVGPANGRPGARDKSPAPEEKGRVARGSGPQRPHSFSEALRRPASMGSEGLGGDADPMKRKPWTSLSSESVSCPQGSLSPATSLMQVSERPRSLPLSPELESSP
Sequence of MAP/microtubule affinity-regulating kinase 3 (Homo sapiens) (P27448 whole entry, looked up): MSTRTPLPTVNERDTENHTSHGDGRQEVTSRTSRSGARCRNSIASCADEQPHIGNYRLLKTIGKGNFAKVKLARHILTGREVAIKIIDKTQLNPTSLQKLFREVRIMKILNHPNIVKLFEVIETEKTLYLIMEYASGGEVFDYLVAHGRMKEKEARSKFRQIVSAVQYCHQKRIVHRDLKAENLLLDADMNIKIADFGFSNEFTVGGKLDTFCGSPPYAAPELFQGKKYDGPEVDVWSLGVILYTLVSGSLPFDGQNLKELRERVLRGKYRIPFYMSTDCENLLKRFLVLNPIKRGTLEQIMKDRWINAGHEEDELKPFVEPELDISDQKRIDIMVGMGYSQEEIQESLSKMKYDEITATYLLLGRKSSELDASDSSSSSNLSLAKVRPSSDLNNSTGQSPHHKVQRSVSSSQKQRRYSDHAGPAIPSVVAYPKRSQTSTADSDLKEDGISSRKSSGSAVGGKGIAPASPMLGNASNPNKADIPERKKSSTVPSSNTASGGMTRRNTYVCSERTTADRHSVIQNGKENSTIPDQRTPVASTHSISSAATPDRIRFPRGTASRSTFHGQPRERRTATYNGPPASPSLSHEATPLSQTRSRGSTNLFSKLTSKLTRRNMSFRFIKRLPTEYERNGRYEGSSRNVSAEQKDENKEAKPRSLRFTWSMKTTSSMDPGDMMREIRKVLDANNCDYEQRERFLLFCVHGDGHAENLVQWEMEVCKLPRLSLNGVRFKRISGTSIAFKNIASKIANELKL
Sequence of Serine/threonine-protein kinase 26 (Homo sapiens) (Q9P289 2-416 limits assumed): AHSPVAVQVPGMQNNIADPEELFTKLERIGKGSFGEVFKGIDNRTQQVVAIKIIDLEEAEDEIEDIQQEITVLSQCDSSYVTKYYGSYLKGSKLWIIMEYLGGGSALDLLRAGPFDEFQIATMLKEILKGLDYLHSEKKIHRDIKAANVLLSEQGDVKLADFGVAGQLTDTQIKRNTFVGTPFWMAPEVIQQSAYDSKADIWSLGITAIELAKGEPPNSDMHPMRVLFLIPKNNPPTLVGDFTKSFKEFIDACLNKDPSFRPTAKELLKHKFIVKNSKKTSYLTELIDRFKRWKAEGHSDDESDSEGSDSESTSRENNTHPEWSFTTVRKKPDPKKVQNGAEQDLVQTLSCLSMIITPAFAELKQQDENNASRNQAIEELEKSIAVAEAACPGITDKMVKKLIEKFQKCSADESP
T1 sequence (Q9UHD2 whole entry): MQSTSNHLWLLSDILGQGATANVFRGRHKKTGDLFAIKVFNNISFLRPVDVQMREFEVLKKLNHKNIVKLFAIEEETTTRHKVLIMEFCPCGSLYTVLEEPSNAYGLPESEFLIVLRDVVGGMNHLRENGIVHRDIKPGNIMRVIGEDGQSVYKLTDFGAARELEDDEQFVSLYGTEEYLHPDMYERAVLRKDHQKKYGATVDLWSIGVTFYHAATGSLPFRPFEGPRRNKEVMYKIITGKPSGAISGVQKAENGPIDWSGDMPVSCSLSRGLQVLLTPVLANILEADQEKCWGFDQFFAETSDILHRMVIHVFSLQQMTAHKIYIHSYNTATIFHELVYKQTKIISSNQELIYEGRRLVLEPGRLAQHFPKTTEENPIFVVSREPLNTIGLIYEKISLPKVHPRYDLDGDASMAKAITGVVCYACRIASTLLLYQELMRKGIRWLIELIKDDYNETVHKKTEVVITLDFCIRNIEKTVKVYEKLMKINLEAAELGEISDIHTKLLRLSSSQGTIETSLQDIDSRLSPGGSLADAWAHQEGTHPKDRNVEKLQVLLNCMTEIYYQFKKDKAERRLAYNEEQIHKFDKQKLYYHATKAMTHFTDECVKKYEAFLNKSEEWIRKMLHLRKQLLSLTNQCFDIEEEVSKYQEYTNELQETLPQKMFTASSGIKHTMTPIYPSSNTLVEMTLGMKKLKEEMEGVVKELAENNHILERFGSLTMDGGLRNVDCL
Sequence of Alpha-2C adrenergic receptor (Homo sapiens) (P18825 whole entry): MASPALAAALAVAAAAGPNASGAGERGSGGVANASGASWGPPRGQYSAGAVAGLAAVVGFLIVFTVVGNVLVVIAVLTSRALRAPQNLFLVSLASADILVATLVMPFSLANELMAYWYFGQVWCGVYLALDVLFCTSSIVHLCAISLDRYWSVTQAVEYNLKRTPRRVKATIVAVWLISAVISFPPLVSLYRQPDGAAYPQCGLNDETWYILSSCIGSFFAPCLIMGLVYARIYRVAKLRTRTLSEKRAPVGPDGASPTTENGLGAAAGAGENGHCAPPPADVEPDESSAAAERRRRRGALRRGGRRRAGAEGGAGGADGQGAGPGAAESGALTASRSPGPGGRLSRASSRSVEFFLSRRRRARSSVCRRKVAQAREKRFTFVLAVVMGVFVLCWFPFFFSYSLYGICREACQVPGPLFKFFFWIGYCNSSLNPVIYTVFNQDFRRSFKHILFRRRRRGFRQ
Sequence of Dual specificity protein kinase CLK3 (Homo sapiens) (P49761 whole entry, looked up): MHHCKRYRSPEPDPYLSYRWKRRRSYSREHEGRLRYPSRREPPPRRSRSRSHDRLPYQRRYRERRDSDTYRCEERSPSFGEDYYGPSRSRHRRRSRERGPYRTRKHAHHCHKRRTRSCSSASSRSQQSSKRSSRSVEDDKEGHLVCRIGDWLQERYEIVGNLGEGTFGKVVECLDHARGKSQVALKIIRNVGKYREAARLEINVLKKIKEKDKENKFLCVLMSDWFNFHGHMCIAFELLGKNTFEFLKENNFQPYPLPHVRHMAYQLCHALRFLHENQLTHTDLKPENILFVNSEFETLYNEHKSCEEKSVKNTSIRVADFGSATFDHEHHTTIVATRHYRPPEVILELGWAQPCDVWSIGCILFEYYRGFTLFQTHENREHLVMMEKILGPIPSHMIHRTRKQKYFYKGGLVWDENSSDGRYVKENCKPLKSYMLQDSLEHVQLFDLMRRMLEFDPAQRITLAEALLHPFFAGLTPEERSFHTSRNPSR
Sequence of Activin receptor type-1-like (Homo sapiens) (P37023 whole entry): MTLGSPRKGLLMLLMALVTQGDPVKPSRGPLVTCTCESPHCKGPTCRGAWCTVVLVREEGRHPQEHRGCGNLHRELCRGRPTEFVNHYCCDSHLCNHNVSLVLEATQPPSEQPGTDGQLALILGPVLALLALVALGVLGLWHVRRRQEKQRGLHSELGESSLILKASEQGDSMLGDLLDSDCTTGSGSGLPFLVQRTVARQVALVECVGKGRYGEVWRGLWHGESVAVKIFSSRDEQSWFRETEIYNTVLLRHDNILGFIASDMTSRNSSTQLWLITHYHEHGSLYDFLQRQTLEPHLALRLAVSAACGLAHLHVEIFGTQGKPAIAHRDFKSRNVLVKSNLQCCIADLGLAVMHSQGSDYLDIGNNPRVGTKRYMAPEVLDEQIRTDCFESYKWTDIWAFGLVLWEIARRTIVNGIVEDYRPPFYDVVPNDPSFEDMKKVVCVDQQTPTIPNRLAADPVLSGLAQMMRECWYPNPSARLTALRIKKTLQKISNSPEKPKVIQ

Question: For `CN(C)c1ncnc(-c2ccc3nc(Nc4cc(CN5CCN(C(=O)CC(F)(F)F)CC5)ccn4)[nH]c3c2)c1Cl` [BAY-440], which residual activity [1, 27] is on record?
Answer: 91%

Question: What about the inhibition [2] of the same molecule?
Answer: -4.19%

Question: What about the residual activity [3, 27] of the same molecule?
Answer: 73%

Question: And the residual activity [4, 27]?
Answer: 100%

Question: What about the inhibition [5] of the same molecule?
Answer: -2.29%

Question: And the residual activity [6, 27]?
Answer: 100%

Question: And the residual activity [7, 27]?
Answer: 94%

Question: What about the residual activity [8, 27] of the same molecule?
Answer: 100%

Question: And the residual activity [9, 27]?
Answer: 100%

Question: What about the residual activity [10, 27] of the same molecule?
Answer: 74%

Question: And the residual activity [11, 27]?
Answer: 100%

Question: And the residual activity [12, 27]?
Answer: 100%

Question: And the inhibition [13]?
Answer: 7.09%

Question: What about the residual activity [14, 27] of the same molecule?
Answer: 100%

Question: And the residual activity [15, 27]?
Answer: 100%

Question: What about the residual activity [16, 27] of the same molecule?
Answer: 53%

Question: Which IC50 [17] does the source give for `C[C@H](c1ccnc(Nc2nc3ccc(-c4cc(N(C)C)ncn4)cc3[nH]2)c1)N1CCN(C(=O)CC(F)(F)F)CC1` [BAY-985] here?
Answer: > 20000 nM (not active)

Question: What about the residual activity [1, 28] of the same molecule?
Answer: 100%

Question: And the Ki ([18]; read-out: Ki)?
Answer: 1310 nM

Question: And the Ki ([18]; read-out: pKi (converted))?
Answer: 1290 nM

Question: What about the residual activity [3, 28] of the same molecule?
Answer: 97%

Question: And the residual activity [4, 28]?
Answer: 100%

Question: And the inhibition [19]?
Answer: 30.5%

Question: And the inhibition [5]?
Answer: -0.75%

Question: And the IC50 [20]?
Answer: 312 nM (active)

Question: What about the residual activity [6, 28] of the same molecule?
Answer: 100%

Question: And the IC50 [21]?
Answer: > 20000 nM (not active)

Question: And the residual activity [7, 28]?
Answer: 100%

Question: And the residual activity [8, 28]?
Answer: 100%

Question: What about the IC50 [22] of the same molecule?
Answer: 18 nM (active)

Question: And the IC50 [23]?
Answer: > 20000 nM (not active)

Question: And the residual activity [9, 28]?
Answer: 93%

Question: What about the residual activity [10, 28] of the same molecule?
Answer: 100%

Question: And the residual activity [11, 28]?
Answer: 100%

Question: What about the inhibition [24] of the same molecule?
Answer: 23%

Question: What about the residual activity [12, 28] of the same molecule?
Answer: 100%

Question: And the inhibition [13]?
Answer: 9.82%

Question: What about the residual activity [14, 28] of the same molecule?
Answer: 74%

Question: What about the residual activity [15, 28] of the same molecule?
Answer: 79%

Question: And the residual activity [16, 28]?
Answer: 80%

Question: And the IC50 [25]?
Answer: 1730 nM (active)

Question: And the IC50 [26]?
Answer: > 20000 nM (not active)
